From ChEMBL document CHEMBL6092158, “Green synthesis of neuroprotective spirocyclic chalcone derivatives and their role in protecting against traumatic optic nerve injury” (Eur J Med Chem, 2024)
Active and inactive are the calls of the source. The calls are words filed in the database; no cut-off is given here.

How the values were obtained:
R28 [1] = test: Cytoprotective activity against glutamate-induced cytotoxicity in rat R28 cells assessed as increase in cell viability at 10 uM incubated for 24 hrs in presence of glutamate by MTT assay; assay type: functional, cell-based
R28 [2] = test: Cytoprotective activity against hydrogen peroxide-induced cytotoxicity in rat R28 cells assessed as increase in cell viability at 10 uM preincubated for 24 hrs followed by incubation with H2O2 for 24 hrs by MTT assay; assay type: functional, cell-based

COc1cc(C(=O)[C@@H]2[C@@H](c3ccc(O)c(O)c3)CN(C)[C@@]23C(=O)Nc2ccccc23)cc(OC)c1OC
Activity (R28 [1]): Active | Activity (R28 [2]): Active

CN1C[C@H](c2ccc(O)c(O)c2)[C@@H](C(=O)c2cccc(C(F)(F)F)c2)[C@]12C(=O)Nc1ccccc12
Activity (R28 [1]): inactive | Activity (R28 [2]): inactive

CN1C[C@H](c2ccc(O)c(O)c2)[C@@H](C(=O)c2ccc(OC(F)(F)F)cc2)[C@]12C(=O)Nc1ccccc12
Activity (R28 [1]): Active | Activity (R28 [2]): Active

CN1C[C@H](c2ccc(O)c(O)c2)[C@@H](C(=O)c2ccc(Br)cc2F)[C@]12C(=O)Nc1ccccc12
Activity (R28 [1]): Active | Activity (R28 [2]): Active

CN1C[C@H](c2ccc(O)c(O)c2)[C@@H](C(=O)c2cccc(F)c2)[C@]12C(=O)Nc1ccccc12
Activity (R28 [1]): Active | Activity (R28 [2]): Active

CN1C[C@H](c2ccc(O)c(O)c2)[C@@H](C(=O)c2cccc(O)c2)[C@]12C(=O)Nc1ccccc12
Activity (R28 [1]): Active | Activity (R28 [2]): Active

CN1C[C@H](c2ccc(O)c(O)c2)[C@@H](C(=O)c2ccc(F)cc2)[C@]12C(=O)Nc1ccccc12
Activity (R28 [1]): Active | Activity (R28 [2]): Active

CN1C[C@H](c2ccc(O)c(O)c2)[C@@H](C(=O)c2ccccc2)[C@]12C(=O)Nc1ccccc12
Activity (R28 [1]): Active | Activity (R28 [2]): Active

CCCc1ccc(C(=O)[C@@H]2[C@@H](c3ccc(O)c(O)c3)CN(C)[C@@]23C(=O)Nc2ccccc23)cc1
Activity (R28 [1]): Active | Activity (R28 [2]): Active

CN1C[C@H](c2ccc(O)c(O)c2)[C@@H](C(=O)c2ccc([N+](=O)[O-])cc2)[C@]12C(=O)Nc1ccccc12
Activity (R28 [1]): inactive | Activity (R28 [2]): inactive

CN1C[C@H](c2ccc(O)c(O)c2)[C@@H](C(=O)c2ccc(Cl)cc2)[C@]12C(=O)Nc1ccccc12
Activity (R28 [1]): Active | Activity (R28 [2]): Active
